Measurements taken from patent publication US11578079B2, “SUMO inhibitor compounds and uses thereof” (CITY OF HOPE, priority 2018, dated 2023).

Experiments:
c-Myc = c-Myc activity (Table I, biological activities); parameters: key: + (less active); ++ (active); +++ (most active)
SUMO = biological target: T1, SUMO (Homo sapiens, UniProt Q9UBT2); assay: SUMO activity (Table I, biological activities); format: biochemical; parameters: key: + (less active); ++ (active); +++ (most active)
T1 sequence (Q9UBT2 1-640): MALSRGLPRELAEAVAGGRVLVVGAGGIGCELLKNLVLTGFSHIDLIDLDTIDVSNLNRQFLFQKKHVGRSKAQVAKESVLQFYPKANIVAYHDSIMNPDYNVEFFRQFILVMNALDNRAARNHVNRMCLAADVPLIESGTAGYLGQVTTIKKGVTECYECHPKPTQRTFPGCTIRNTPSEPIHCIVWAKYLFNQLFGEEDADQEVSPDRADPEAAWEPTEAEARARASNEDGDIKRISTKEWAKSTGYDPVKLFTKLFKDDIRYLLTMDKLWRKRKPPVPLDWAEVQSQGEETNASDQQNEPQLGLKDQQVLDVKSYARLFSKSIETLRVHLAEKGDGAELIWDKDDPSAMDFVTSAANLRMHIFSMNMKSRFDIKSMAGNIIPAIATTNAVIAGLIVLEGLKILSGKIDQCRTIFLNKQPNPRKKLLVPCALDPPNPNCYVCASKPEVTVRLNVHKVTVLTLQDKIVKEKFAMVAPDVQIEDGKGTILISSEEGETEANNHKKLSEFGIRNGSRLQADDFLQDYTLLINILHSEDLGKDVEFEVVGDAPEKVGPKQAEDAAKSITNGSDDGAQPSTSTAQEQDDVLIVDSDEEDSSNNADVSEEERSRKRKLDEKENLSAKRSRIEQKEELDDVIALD
T1 sequence (Q9UBE0 1-346 partner): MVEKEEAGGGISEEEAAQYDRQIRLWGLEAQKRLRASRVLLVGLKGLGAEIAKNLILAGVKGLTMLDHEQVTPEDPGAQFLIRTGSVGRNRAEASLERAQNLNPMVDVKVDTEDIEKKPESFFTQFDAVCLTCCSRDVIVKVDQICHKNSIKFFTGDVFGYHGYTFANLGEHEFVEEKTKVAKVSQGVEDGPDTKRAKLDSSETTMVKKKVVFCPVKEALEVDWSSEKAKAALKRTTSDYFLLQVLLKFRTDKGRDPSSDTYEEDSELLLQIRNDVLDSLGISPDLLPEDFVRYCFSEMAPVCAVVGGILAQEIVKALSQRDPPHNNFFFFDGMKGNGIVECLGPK

SMILES | SUMO (SUMO) | c-Myc (c-Myc)
CCOc1cccc(NC(Cc2ccccc2)C23C=CC(O2)C(C(=O)NC2CCN(C)CC2)=C3C(=O)OC)c1 (stereo not shown) [Compound 247] | +++ | +
COC(=O)C1=C(C(=O)O)C2(C(Cc3ccccc3)Nc3cc(F)cc(F)c3)C=CC1O2 (stereo not shown) [Compound 310] | + | +
CCOC(=O)C1=CC2OC1(C(Nc1ccccc1)c1ccccc1)c1ccccc12 (stereo not shown) [Compound 625] | + | +
COC(=O)C1=C(C(=O)NCC2CCCN2C)C2C=CC1(C(Cc1ccccc1)Nc1ccccc1)O2 (stereo not shown) [Compound 418] | ++ | ++
CCOc1cccc(NC(Cc2ccccc2)C23C=CC(O2)C(C(=O)NCCN2CCOCC2)=C3C(=O)OC)c1 (stereo not shown) [Compound 252] | +++ | ++
CCOC(=O)C1=C(C(=O)Nc2ccccc2C)C2C=CC1(C(Nc1ccccc1)c1ccc(CN3CCOCC3)cc1)O2 (stereo not shown) [Compound 591] | ++ | ++
CC(=O)C1=CC2(C(Cc3ccccc3)Nc3ccccc3)C=CC1(C)O2 (stereo not shown) [Compound 527] | + | +
COC(=O)C1=C(C(=O)NCCN2CCOCC2)C2C=CC1(C(Cc1ccccc1)Oc1ccccc1)O2 (stereo not shown) [Compound 326] | ++ | ++
COC(=O)C1=C(C(=O)NC2CCN(C(=O)c3ccc(F)cc3)CC2)C2CCC1(C(Cc1ccccc1)Nc1ccccc1)O2 (stereo not shown) [Compound 370] | + | +
CCOC(=O)C1=C(C(=O)Nc2ccc(Cl)cc2)C2C=CC1(C(Nc1ccccc1)c1ccc(CN3CCOCC3)cc1)O2 (stereo not shown) [Compound 606] | ++ | +
CCOC(=O)C1=C(C(=O)Nc2ccc(OC(F)(F)F)cc2)C2C=CC1(C(Nc1ccccc1)c1ccc(CN3CCOCC3)cc1)O2 (stereo not shown) [Compound 599] | ++ | ++
COC(=O)C1=C(C(=O)Nc2cccc(OC)c2)C2C=CC1(C(Cc1ccccc1)Nc1ccccc1)O2 (stereo not shown) [Compound 180] | + | +
CCCCC(Nc1ccccc1)C12C=CC(O1)C(C(=O)NC1CCN(C)CC1)=C2C(=O)OC (stereo not shown) [Compound 267] | ++ | ++
COC(=O)C1=C(C(=O)Nc2ccccc2OC)C2C=CC1(C(Cc1ccccc1)Nc1ccccc1)O2 (stereo not shown) [Compound 352] | ++ | +
COC(=O)C1=C(C(=O)NCc2ccncc2)C2C=CC1(C(Cc1ccccc1)Nc1cc(F)cc(Cl)c1)O2 (stereo not shown) [Compound 216] | ++ | ++
COC(=O)C1=C(C(=O)NC2CCN(C)C2)C2C=CC1(C(Cc1ccccc1)Nc1cc(F)cc(Cl)c1)O2 (stereo not shown) [Compound 238] | +++ | ++
CCOC(=O)C1=C(C(=O)Nc2ccc(OC)cc2)C2(C)C=CC1(C(Nc1ccccc1)c1ccc(CN3CCOCC3)cc1)O2 (stereo not shown) [Compound 581] | + | +
COCCN1CCC(NC(=O)C2=C(C(=O)OC)C3(C(Cc4ccccc4)Nc4ccccc4)CCC2O3)CC1 (stereo not shown) [Compound 367] | + | +
C=CCCC(Nc1ccccc1)C12C=CC(O1)C(C(=O)Nc1ccc(OC)cc1)=C2C(=O)OC (stereo not shown) [Compound 176] | ++ | +
COC(=O)C1=C(C(N)=O)C2C=CC1(C(Cc1ccccc1)Nc1cc(F)cc(Cl)c1)O2 (stereo not shown) [Compound 217] | + | ++
COC(=O)C1=C(C(=O)NC2CCN(C(C)C)CC2)C2C=CC1(C(Cc1ccccc1)Oc1ccccc1)O2 (stereo not shown) [Compound 324] | ++ | ++
CCOC(=O)C1=C(C(=O)Nc2ccc(CN(C)C)cc2)C2C=CC1(C(Nc1ccccc1)c1ccc(CN3CCOCC3)cc1)O2 (stereo not shown) [Compound 565] | + | +
CCOC(=O)C1=C(C(=O)NCCN(C)C)C2C=CC1(C(Cc1ccccc1)Nc1ccc(F)cc1F)O2 (stereo not shown) [Compound 411] | ++ | +
COC(=O)C1=C(C(=O)NCCN(C)C)C2C=CC1(C(Cc1ccccc1)Nc1ccc(F)cc1F)O2 (stereo not shown) [Compound 409] | ++ | ++
COC(=O)C1=C(C(=O)Nc2cccnc2)C2C=CC1(C(Cc1ccccc1)Nc1cc(F)cc(F)c1)O2 (stereo not shown) [Compound 241] | ++ | ++
COC(=O)C1=C(C(=O)NC2CCN(C(=O)CN(C)C)CC2)C2C=CC1(C(Cc1ccccc1)Nc1ccccc1)O2 (stereo not shown) [Compound 385] | ++ | +
CCOc1cccc(NC(Cc2ccccc2)C23C=CC(O2)C(C(N)=O)=C3C(=O)OC)c1 (stereo not shown) [Compound 249] | ++ | +
CCOC(=O)C1=C(C(=O)NC2CCN(C)CC2)C2C=CC1(C(Cc1ccccc1)Nc1ccc(F)cc1F)O2 (stereo not shown) [Compound 329] | +++ | ++

Continued, in another order:

SUMO (SUMO) | SMILES | c-Myc (c-Myc)
++ | COC(=O)C1=C(C(N)=O)C2C=CC1(C(Cc1ccccc1)Nc1ccccc1)O2 (stereo not shown) [Compound 151] | +
++ | COC(=O)C1=C(C(=O)NC2CCN(C(=O)c3cccc(F)c3)CC2)C2C=CC1(C(Cc1ccccc1)Nc1ccccc1)O2 (stereo not shown) [Compound 386] | +
++ | COC(=O)C1=C(C(=O)Nc2ccc(OC)cc2)C2C=CC1(C(Cc1ccccc1)Oc1ccccc1)O2 (stereo not shown) [Compound 325] | ++
+++ | COC(=O)C1=C(C(=O)NCCN2CCCC2)C2C=CC1(C(Cc1ccc(C(F)(F)F)cc1)Nc1ccccc1)O2 (stereo not shown) [Compound 440] | ++
+++ | COC(=O)C1=C(C(=O)NCCN2CCCC2)C2C=CC1(C(Cc1ccc(Cl)cc1)Nc1cc(F)cc(F)c1)O2 (stereo not shown) [Compound 441] | ++
++ | COC(=O)C1=C(C(=O)NC2CCN(C(=O)c3ccsc3)CC2)C2C=CC1(C(Cc1ccccc1)Nc1ccccc1)O2 (stereo not shown) [Compound 383] | +
++ | COC(=O)C1=C(C(=O)Nc2ccc(CN(C)C)c(F)c2)C2C=CC1(C(Cc1ccccc1)Nc1ccccc1)O2 (stereo not shown) [Compound 489] | +
+ | CCOC(=O)C1=C(C(=O)N(C)C)C2C=CC1(C(Nc1ccccc1)c1ccc(CN3CCOCC3)cc1)O2 (stereo not shown) [Compound 590] | +
+ | COC(=O)C1=C(C(=O)Nc2ccc(OC)c(F)c2)C2C=CC1(C(Cc1ccccc1)Nc1ccccc1)O2 (stereo not shown) [Compound 308] | +
++ | CCOC(=O)C1=C(C(=O)Nc2ccccc2F)C2C=CC1(C(Nc1ccccc1)c1ccc(CN3CCOCC3)cc1)O2 (stereo not shown) [Compound 595] | +
++ | C=CCC(Nc1ccccc1)C12C=CC(O1)C(C(=O)NCCN(C)C)=C2C(=O)OC (stereo not shown) [Compound 415] | +
+ | COC(=O)C1=C(C(=O)OC)C2(C(Cc3ccccc3)N(C(=O)C(F)(F)F)c3ccccc3)OC1C1=C2O1 (stereo not shown) [Compound 555] | +
++ | CCN(CC)CCNC(=O)C1=C(C(=O)OC)C2(C(Cc3ccc(C)cc3)Nc3cc(F)cc(F)c3)C=CC1O2 (stereo not shown) [Compound 429] | ++
++ | COC(=O)C1=C(C(=O)NCCN(C)C)C2C=CC1(C(Cc1ccc(C(F)(F)F)cc1)Nc1ccccc1)O2 (stereo not shown) [Compound 423] | ++
+++ | COC(=O)C1=C(C(=O)NCCN2CCCC2)C2C=CC1(C(Cc1ccccc1)Nc1cc(F)cc(Cl)c1)O2 (stereo not shown) [Compound 444] | ++
+ | COC(=O)C1=C(C(=O)NNc2cc(C(F)(F)F)cc(C(F)(F)F)c2)C2C=CC1(C(Cc1ccccc1)Nc1cc(F)cc(F)c1)O2 (stereo not shown) [Compound 317] | +
++ | COC(=O)C1=C(C(=O)NCCN(C)C)C2C=CC1(C(Cc1ccccc1)Nc1cccc(F)c1)O2 (stereo not shown) [Compound 420] | ++
++ | O=C(C1=CC2(C3OCCO3)C=CC1O2)c1ccc(F)cc1 (stereo not shown) [Compound 523] | +
+++ | COC(=O)C1=C(C(=O)NCCN2CCCC2)C2C=CC1(C(Cc1ccccc1)Nc1ccccc1)O2 (stereo not shown) [Compound 406] | ++
+++ | COC(=O)C1=C(C(=O)Nc2ccc(OCCN3CCOCC3)cc2)C2C=CC1(C(Cc1ccccc1)Nc1ccccc1)O2 (stereo not shown) [Compound 502] | +
+ | CCOC(=O)C1=C(C(=O)Nc2ccc(C)c(F)c2)C2C=CC1(C(Nc1ccc(OC)cc1)c1ccc(CN3CCOCC3)cc1)O2 (stereo not shown) [Compound 621] | +
++ | COC(=O)C1=C(C(=O)NC2CN(C(=O)OC(C)(C)C)C2)C2C=CC1(C(Cc1ccccc1)Nc1ccccc1)O2 (stereo not shown) [Compound 404] | +
